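Protocol summary: plate cells (96-well), add compound at 5 concentrations, incubate 48 h, interpolate endpoints linearly. GI50 is the concentration that inhibits growth by half.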 Calls of active or inactive are those of the source. Rule as the data show it: active = GI50 up to about 1.1 µM and inactive = higher.
Assays:
Assay in all cases: inhibition of tumour cell growth, NCI panel, 48 h
NCI-H522 = test system: NCI-H522
NCI-H460 = test system: NCI-H460
HCT-15 = test system: HCT-15
Hs-578T = test system: Hs-578T
BT-549 = test system: BT-549
NCI-H226 = test system: NCI-H226
KM12 = test system: KM12
OVCAR-5 = test system: OVCAR-5
IGROV-1 = test system: IGROV-1
HCT-116 = test system: HCT-116
CAKI-1 = test system: CAKI-1
DU-145 = test system: DU-145
SF-539 = test system: SF-539
OVCAR-3 = test system: OVCAR-3
NCI-H23 = test system: NCI-H23
SNB-19 = test system: SNB-19
ACHN = test system: ACHN
HOP-92 = test system: HOP-92
A549 = test system: A549
A498 = test system: A498
MCF7 = test system: MCF7
HT-29 = test system: HT-29
UACC-62 = test system: UACC-62
UO-31 = test system: UO-31
OVCAR-4 = test system: OVCAR-4
OVCAR-8 = test system: OVCAR-8
SN12C = test system: SN12C
MDA-MB-435 = test system: MDA-MB-435
UACC-257 = test system: UACC-257
K562 = test system: K562
PC-3 = test system: PC-3
EKVX = test system: EKVX
HCC 2998 = test system: HCC 2998
HL-60 = test system: HL-60
COLO 205 = test system: COLO 205
LOX IMVI = test system: LOX IMVI
SF-268 = test system: SF-268
MDA-MB-231 = test system: MDA-MB-231
SR = test system: SR
SK-MEL-28 = test system: SK-MEL-28
SF-295 = test system: SF-295
Malme-3M = test system: Malme-3M
M14 = test system: M14
TK-10 = test system: TK-10
HOP-62 = test system: HOP-62
SK-MEL-2 = test system: SK-MEL-2
MDA-N = test system: MDA-N
SW-620 = test system: SW-620
U-251 = test system: U-251
NCI/ADR-RES = test system: NCI/ADR-RES
RPMI-8226 = test system: RPMI-8226
MOLT-4 = test system: MOLT-4
786-0 = test system: 786-0
SK-MEL-5 = test system: SK-MEL-5
RXF 393 = test system: RXF 393
CCRF-CEM = test system: CCRF-CEM
SNB-75 = test system: SNB-75
SK-OV-3 = test system: SK-OV-3

## CCOC(=O)C(CCc1ncnc2c1ncn2Cc1ccccc1)(CCc1ncnc2c1ncn2Cc1ccccc1)C(=O)OCC
NCI-H522
  GI50: 33.9 µM (inactive)
NCI-H460
  GI50: 40.4 µM (inactive)
HCT-15
  GI50: 52.7 µM
Hs-578T
  GI50: 83.2 µM (inactive)
BT-549
  GI50: 76.6 µM (inactive)
NCI-H226
  GI50: 27.7 µM (inactive)
KM12
  GI50: 46.9 µM (inactive)
OVCAR-5
  GI50: > 100 µM (inactive)
IGROV-1
  GI50: 89.9 µM (inactive)
HCT-116
  GI50: 51.4 µM (inactive)
CAKI-1
  GI50: 51.8 µM (inactive)
DU-145
  GI50: 89.3 µM (inactive)
SF-539
  GI50: 30.3 µM (inactive)
OVCAR-3
  GI50: 90.8 µM (inactive)
NCI-H23
  GI50: 46.1 µM (inactive)
SNB-19
  GI50: > 100 µM (inactive)
ACHN
  GI50: 81.8 µM (inactive)
HOP-92
  GI50: 69.7 µM (inactive)
A549
  GI50: 39.2 µM (inactive)
A498
  GI50: 47.4 µM (inactive)
MCF7
  GI50: 37.9 µM (inactive)
HT-29
  GI50: 42.9 µM (inactive)
UACC-62
  GI50: 26.2 µM (inactive)
UO-31
  GI50: 2.64 µM (inactive)
OVCAR-4
  GI50: 59.4 µM (inactive)
OVCAR-8
  GI50: 64.1 µM (inactive)
SN12C
  GI50: 58.6 µM (inactive)
MDA-MB-435
  GI50: 52.1 µM (inactive)
UACC-257
  GI50: 31.7 µM (inactive)
K562
  GI50: 42.5 µM (inactive)
PC-3
  GI50: 27 µM (inactive)
EKVX
  GI50: 63.7 µM (inactive)
HCC 2998
  GI50: 19.9 µM (inactive)
HL-60
  GI50: 38.3 µM (inactive)
COLO 205
  GI50: 24.2 µM (inactive)
LOX IMVI
  GI50: 44.4 µM (inactive)
SF-268
  GI50: 69.5 µM (inactive)
MDA-MB-231
  GI50: 53.3 µM (inactive)
SR
  GI50: 26.4 µM (inactive)
SK-MEL-28
  GI50: 98.9 µM (inactive)
SF-295
  GI50: 70.3 µM (inactive)
Malme-3M
  GI50: 61.7 µM (inactive)
M14
  GI50: 54.6 µM (inactive)
TK-10
  GI50: 82.6 µM (inactive)
HOP-62
  GI50: > 100 µM (inactive)
SK-MEL-2
  GI50: 44.1 µM (inactive)
MDA-N
  GI50: 33 µM (inactive)
SW-620
  GI50: > 100 µM (inactive)
U-251
  GI50: 62.1 µM (inactive)
NCI/ADR-RES
  GI50: 49.7 µM (inactive)
RPMI-8226
  GI50: 23.6 µM (inactive)
MOLT-4
  GI50: 13.4 µM (inactive)
786-0
  GI50: 41.1 µM (inactive)
SK-MEL-5
  GI50: 48.5 µM (inactive)
RXF 393
  GI50: 32.4 µM (inactive)

## C=C(Cl)C(C)(Cl)CCC(Br)C(C)(C)Cl (stereo not drawn)
NCI-H522
  GI50: 11.2 µM (inactive)
NCI-H460
  GI50: 26 µM (inactive)
Hs-578T
  GI50: 21.2 µM (inactive)
BT-549
  GI50: 20.6 µM (inactive)
NCI-H226
  GI50: 41.8 µM (inactive)
KM12
  GI50: 21.9 µM (inactive)
OVCAR-5
  GI50: 21.5 µM (inactive)
IGROV-1
  GI50: 28.8 µM (inactive)
HCT-116
  GI50: 15.2 µM (inactive)
CAKI-1
  GI50: 25.4 µM (inactive)
DU-145
  GI50: 20.9 µM (inactive)
SF-539
  GI50: 27.8 µM (inactive)
OVCAR-3
  GI50: 18.2 µM (inactive)
NCI-H23
  GI50: 19.1 µM (inactive)
SNB-19
  GI50: 51.5 µM (inactive)
ACHN
  GI50: 17.5 µM (inactive)
HOP-92
  GI50: 18.8 µM (inactive)
A549
  GI50: 29.9 µM (inactive)
A498
  GI50: 41.5 µM (inactive)
MCF7
  GI50: 16.6 µM (inactive)
HT-29
  GI50: 15.8 µM (inactive)
UACC-62
  GI50: 14.9 µM (inactive)
UO-31
  GI50: 15.4 µM (inactive)
OVCAR-4
  GI50: 16.2 µM (inactive)
SN12C
  GI50: 16.7 µM (inactive)
MDA-MB-435
  GI50: 19.4 µM (inactive)
UACC-257
  GI50: 15.9 µM (inactive)
K562
  GI50: 33.9 µM (inactive)
PC-3
  GI50: 25.6 µM (inactive)
EKVX
  GI50: 47.2 µM (inactive)
HCC 2998
  GI50: 19.5 µM (inactive)
CCRF-CEM
  GI50: 19.4 µM (inactive)
HL-60
  GI50: 37.1 µM (inactive)
COLO 205
  GI50: 17.3 µM (inactive)
LOX IMVI
  GI50: 13.3 µM (inactive)
SF-268
  GI50: 33.2 µM (inactive)
MDA-MB-231
  GI50: 15.2 µM (inactive)
SR
  GI50: 21.9 µM (inactive)
SK-MEL-28
  GI50: 21.2 µM (inactive)
SF-295
  GI50: 29.1 µM (inactive)
Malme-3M
  GI50: 17.1 µM (inactive)
M14
  GI50: 20 µM (inactive)
TK-10
  GI50: > 100 µM (inactive)
HOP-62
  GI50: 22 µM (inactive)
SK-MEL-2
  GI50: 19.3 µM (inactive)
MDA-N
  GI50: 15.8 µM (inactive)
SW-620
  GI50: 16.9 µM (inactive)
SNB-75
  GI50: 12.3 µM (inactive)
U-251
  GI50: 15.9 µM (inactive)
NCI/ADR-RES
  GI50: 29.4 µM (inactive)
RPMI-8226
  GI50: 13.2 µM (inactive)
MOLT-4
  GI50: 28.4 µM (inactive)
786-0
  GI50: 17.5 µM (inactive)
SK-OV-3
  GI50: 12.7 µM (inactive)
SK-MEL-5
  GI50: 16.9 µM (inactive)
RXF 393
  GI50: 13.9 µM (inactive)

## CCOc1cc2c(cc1O)C(O)C[C@@H]1[C@@H]2CC[C@]2(C)[C@@H](O)CC[C@@H]12 (stereo partly drawn)
NCI-H522
  GI50: 0.129 µM (active)
NCI-H460
  GI50: 0.265 µM (active)
HCT-15
  GI50: 0.218 µM
Hs-578T
  GI50: 0.46 µM (active)
BT-549
  GI50: 39.1 µM (inactive)
NCI-H226
  GI50: 0.552 µM (active)
KM12
  GI50: 3.24 µM (inactive)
OVCAR-5
  GI50: 52.2 µM (inactive)
IGROV-1
  GI50: 0.431 µM (active)
HCT-116
  GI50: 0.261 µM (active)
CAKI-1
  GI50: 0.514 µM (active)
DU-145
  GI50: 0.59 µM (active)
SF-539
  GI50: 0.28 µM (active)
OVCAR-3
  GI50: 0.347 µM (active)
NCI-H23
  GI50: 0.766 µM (active)
SNB-19
  GI50: 0.465 µM (active)
ACHN
  GI50: 0.553 µM (active)
HOP-92
  GI50: 12.5 µM (inactive)
A549
  GI50: 0.231 µM (active)
A498
  GI50: 0.0501 µM (active)
MCF7
  GI50: 0.268 µM (active)
HT-29
  GI50: 4.44 µM (inactive)
UACC-62
  GI50: 0.284 µM (active)
UO-31
  GI50: 0.767 µM (active)
OVCAR-4
  GI50: > 100 µM (inactive)
OVCAR-8
  GI50: 0.885 µM (active)
SN12C
  GI50: 0.61 µM (active)
MDA-MB-435
  GI50: 0.033 µM (active)
UACC-257
  GI50: 0.444 µM (active)
K562
  GI50: 0.0991 µM (active)
PC-3
  GI50: 3.44 µM (inactive)
EKVX
  GI50: 1.32 µM (inactive)
HCC 2998
  GI50: 3.03 µM (inactive)
CCRF-CEM
  GI50: 0.298 µM (active)
HL-60
  GI50: 0.0822 µM (active)
COLO 205
  GI50: 19.3 µM (inactive)
LOX IMVI
  GI50: 0.299 µM (active)
SF-268
  GI50: 4.16 µM (inactive)
MDA-MB-231
  GI50: 1.25 µM (inactive)
SR
  GI50: 4.94 µM (inactive)
SF-295
  GI50: 0.281 µM (active)
Malme-3M
  GI50: 0.307 µM (active)
M14
  GI50: 0.575 µM (active)
TK-10
  GI50: 0.661 µM (active)
HOP-62
  GI50: 0.675 µM (active)
SK-MEL-2
  GI50: > 100 µM (inactive)
MDA-N
  GI50: 0.0459 µM (active)
SW-620
  GI50: 0.317 µM (active)
SNB-75
  GI50: 0.619 µM (active)
U-251
  GI50: 0.394 µM (active)
NCI/ADR-RES
  GI50: 0.279 µM (active)
RPMI-8226
  GI50: 0.467 µM (active)
MOLT-4
  GI50: 0.692 µM (active)
786-0
  GI50: 0.324 µM (active)
SK-OV-3
  GI50: 0.493 µM (active)
SK-MEL-5
  GI50: 0.236 µM (active)
RXF 393
  GI50: 1.44 µM (inactive)
